{"source": "patent US6929949B1", "about": "“Corona ion generating method and apparatus for the manipulation of molecules and biological cells” (University of South Florida, priority 2002, dated 2005)", "system": "human A204 sarcoma cells", "assay": "Corona charge facilitated uptake of calcein by cells in culture (fluorescence microscopy)", "format": "cell-based", "settings": "for % FLOURESCENT (percentage of fluorescing cells): 10 μM calcein in PBS, visually estimated", "description": "Referring initially to FIG. 2, the present invention has been used experimentally to facilitate the uptake of calcein by cells in culture. The experimental apparatus is shown as in FIG. 2. 35 mm diameter cell culture plates 4 were seeded with 0.5×10^6 human A204 sarcoma cells 5 approximately 24 hours prior to the experiment to allow time for the cells to attach to the growth surface on the bottom of each dish. Immediately prior to treating the cells with corona charge in air, the growth media was aspirated. Then 500 ÂμI of 10 ÂμM Calcein 6, in phosphate buffered saline 7; was introduced onto the bottom of the plate. Calcein molecules in the phosphate buffered saline are shown in the figure as a negatively charged species. The liquid was distributed over the entire growth surface. […] Corona charge 10 was deposited onto the samples in the presence of calcein for a range of times from 0 minutes to 10 minutes. The solution of calcein was allowed to remain in contact with each sample for a period of 10 minutes after corona exposure. Additionally, a positive or negative bias potential 11 can be applied to the sample. Each plate was then washed with two separate 1 ml aliquots of phosphate buffered saline to remove extracellular calcein. Finally, a 1 ml aliquot of phosphate buffered saline was pipetted into each sample plate. Samples were viewed with florescent microscopy to visually confirm the entry of the nonpermanent calcein resulting from corona charge exposure. The percentage of fluorescing cells was visually estimated based upon the total number of cells in the plates. The table shown below indicates the resulting percentages of fluorescing cells in each sample.", "data": [{"smiles": "O=C(O)CN(CC(=O)O)Cc1cc2c(cc1O)Oc1cc(O)c(CN(CC(=O)O)CC(=O)O)cc1C21OC(=O)c2ccccc21", "note": "[calcein, Calcein]", "values": [{"measurement": "entry of calcein into the cells", "setting": "absence of corona exposure (sample 6)", "result": "did not result in the entry of calcein into the cells"}, {"measurement": "% FLOURESCENT (percentage of fluorescing cells)", "setting": "corona exposure time 0 minutes (no corona exposure)", "result": 0, "unit": "%"}, {"measurement": "% FLOURESCENT (percentage of fluorescing cells)", "setting": "corona exposure time 2 minutes, positive corona, wire at 6000 V, 2.5 cm away", "result": "Less than 1%"}, {"measurement": "% FLOURESCENT (percentage of fluorescing cells)", "setting": "corona exposure time 4 minutes, positive corona, wire at 6000 V, 2.5 cm away", "result": 15, "unit": "%"}, {"measurement": "% FLOURESCENT (percentage of fluorescing cells)", "setting": "corona exposure time 6 minutes, positive corona, wire at 6000 V, 2.5 cm away", "result": 20, "unit": "%"}, {"measurement": "% FLOURESCENT (percentage of fluorescing cells)", "setting": "corona exposure time 8 minutes, positive corona, wire at 6000 V, 2.5 cm away", "result": 30, "unit": "%"}, {"measurement": "% FLOURESCENT (percentage of fluorescing cells)", "setting": "corona exposure time 10 minutes, positive corona, wire at 6000 V, 2.5 cm away", "result": 80, "unit": "%"}]}]}
